Measurements as given in the supplement of paper PMC11562712.

Experiment: first-order primary biodegradation rate constant k (sorption-corrected, fDis-corrected) (d-1); higher = faster biodegradation
Method: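 Modified OECD 309 water-sediment test. River water plus sieved sediment (50 g wet solid/L) from European river segments (DE, CH, ES, EL) was spiked with a mixture of 129 compounds at 1 ug/L each and incubated in the dark at river temperature for 10 days. The water phase was analysed by UHPLC-Orbitrap-MS. The first-order primary biodegradation rate constant k (d-1) is k_observed, corrected for dissipation in sterile sorption controls and divided by the dissolved fraction fDis; it was fitted over 3 replicate incubations. Invalid fits (p > 0.05, n < 5, not available, concentration increase) are excluded.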

[1] = river segment: Germany (DE) H_Contam, incubation temperature 24 °C
[2] = river segment: Germany (DE) T_Contam, incubation temperature 24 °C
[3] = river segment: Germany (DE) T_Pris, incubation temperature 24 °C
[4] = river segment: Greece (EL) A_Contam, incubation temperature 19 °C
[5] = river segment: Greece (EL) G_Contam, incubation temperature 19 °C
[6] = river segment: Greece (EL) L_Contam, incubation temperature 19 °C
[7] = river segment: Spain (ES) B_Contam, incubation temperature 24 °C
[8] = river segment: Spain (ES) C_Contam, incubation temperature 24 °C
[9] = river segment: Spain (ES) F_Pris_Salt, incubation temperature 24 °C
[10] = river segment: Spain (ES) L_Contam, incubation temperature 24 °C
[11] = river segment: Switzerland (CH) C_Contam, incubation temperature 17 °C
[12] = river segment: Switzerland (CH) R_Contam, incubation temperature 17 °C
[13] = river segment: Switzerland (CH) U_Contam, incubation temperature 17 °C
[14] = river segment: Switzerland (CH) U_Pris, incubation temperature 17 °C
[15] = river segment: Greece (EL) G_Pris, incubation temperature 19 °C

In the case of `CC(C)N(C(=O)CCl)c1ccccc1` [Propachlor], the “first-order primary biodegradation rate constant k” value [1] is reported as 0.302, the “first-order primary biodegradation rate constant k” value [2] is reported as 0.812 and the “first-order primary biodegradation rate constant k” value [3] is reported as 0.308. The “first-order primary biodegradation rate constant k” value [4] was 0.575, the “first-order primary biodegradation rate constant k” value [5] was 0.271 and the “first-order primary biodegradation rate constant k” value [6] was 0.985. For the same compound, the “first-order primary biodegradation rate constant k” value [7] was 1.07, the “first-order primary biodegradation rate constant k” value [8] was 0.218 and the “first-order primary biodegradation rate constant k” value [9] was 0.212. The “first-order primary biodegradation rate constant k” value [10] was 0.809, the “first-order primary biodegradation rate constant k” value [11] was 0.33 and the “first-order primary biodegradation rate constant k” value [12] was 0.429. The “first-order primary biodegradation rate constant k” value [13] was 0.649 and the “first-order primary biodegradation rate constant k” value [14] was 0.552.
With `COc1cccc(C2(O)CCCCC2CN(C)C)c1` (stereo not drawn) [Tramadol] the “first-order primary biodegradation rate constant k” value [1] was 0.0149, the “first-order primary biodegradation rate constant k” value [2] was 0.058 and the “first-order primary biodegradation rate constant k” value [3] was 0.00925. The “first-order primary biodegradation rate constant k” value [4] was 0.0025, the “first-order primary biodegradation rate constant k” value [15] was 0.0141 and the “first-order primary biodegradation rate constant k” value [6] was 0.0437. For the same compound, the “first-order primary biodegradation rate constant k” value [7] was 0.00653, the “first-order primary biodegradation rate constant k” value [8] was 0.00694 and the “first-order primary biodegradation rate constant k” value [10] was 0.00992. For the same compound, the “first-order primary biodegradation rate constant k” value [12] was 0.00497, the “first-order primary biodegradation rate constant k” value [13] was 0.0131 and the “first-order primary biodegradation rate constant k” value [14] was 0.0152.
In the case of `Cc1ccc(-c2nc3ccc(C)cn3c2CC(=O)N(C)C)cc1` [Zolpidem], the “first-order primary biodegradation rate constant k” value [1] is reported as 0.202, the “first-order primary biodegradation rate constant k” value [2] is reported as 0.672 and the “first-order primary biodegradation rate constant k” value [3] is reported as 0.0723. For the same compound, the “first-order primary biodegradation rate constant k” value [4] was 0.464, the “first-order primary biodegradation rate constant k” value [15] was 0.19 and the “first-order primary biodegradation rate constant k” value [6] was 2.27. For the same compound, the “first-order primary biodegradation rate constant k” value [7] was 0.709, the “first-order primary biodegradation rate constant k” value [8] was 0.0357 and the “first-order primary biodegradation rate constant k” value [9] was 0.00549. For the same compound, the “first-order primary biodegradation rate constant k” value [10] was 0.761, the “first-order primary biodegradation rate constant k” value [11] was 0.0346 and the “first-order primary biodegradation rate constant k” value [12] was 0.0249. For the same compound, the “first-order primary biodegradation rate constant k” value [13] was 0.0604 and the “first-order primary biodegradation rate constant k” value [14] was 0.135.
With `CCCCc1nc(Cl)c(CO)n1Cc1ccc(-c2ccccc2-c2nnn[nH]2)cc1` [Losartan] the “first-order primary biodegradation rate constant k” value [1] was 0.417, the “first-order primary biodegradation rate constant k” value [2] was 0.319 and the “first-order primary biodegradation rate constant k” value [3] was 0.123. For the same compound, the “first-order primary biodegradation rate constant k” value [4] was 0.323, the “first-order primary biodegradation rate constant k” value [15] was 0.781 and the “first-order primary biodegradation rate constant k” value [6] was 0.343. The “first-order primary biodegradation rate constant k” value [7] was 0.157, the “first-order primary biodegradation rate constant k” value [8] was 0.105 and the “first-order primary biodegradation rate constant k” value [9] was 0.0258. For the same compound, the “first-order primary biodegradation rate constant k” value [10] was 0.299, the “first-order primary biodegradation rate constant k” value [11] was 0.06 and the “first-order primary biodegradation rate constant k” value [12] was 0.149. The “first-order primary biodegradation rate constant k” value [13] was 0.294 and the “first-order primary biodegradation rate constant k” value [14] was 0.358.
In the case of `CC(C)(Oc1ccc(CCNC(=O)c2ccc(Cl)cc2)cc1)C(=O)O` [Bezafibrate], the “first-order primary biodegradation rate constant k” value [1] is reported as 0.295, the “first-order primary biodegradation rate constant k” value [2] is reported as 0.469 and the “first-order primary biodegradation rate constant k” value [3] is reported as 0.123. For the same compound, the “first-order primary biodegradation rate constant k” value [4] was 0.408, the “first-order primary biodegradation rate constant k” value [5] was 0.184 and the “first-order primary biodegradation rate constant k” value [15] was 0.438. The “first-order primary biodegradation rate constant k” value [6] was 0.566, the “first-order primary biodegradation rate constant k” value [7] was 1.03 and the “first-order primary biodegradation rate constant k” value [8] was 0.169. The “first-order primary biodegradation rate constant k” value [9] was 0.0229, the “first-order primary biodegradation rate constant k” value [10] was 0.263 and the “first-order primary biodegradation rate constant k” value [11] was 0.382. The “first-order primary biodegradation rate constant k” value [12] was 0.411 and the “first-order primary biodegradation rate constant k” value [14] was 2.17.
